Assay results: the NIST ThermoML archive (doi:10.1021/je900689m)

Assays:
[1] = xn = mol fraction of the nth substance listed; details: 101 kPa, Liquid; for viscosity: Capillary tube (Ostwald / Ubbelohde) method
[2] = 101 kPa, Liquid; for viscosity: Capillary tube (Ostwald / Ubbelohde) method

CCOC=O [ethyl methanoate] + CC(C)c1ccccc1
[1], x1 = 1
Details	mass density [kg/m3]	speed of sound [m/s]	viscosity [mPa·s]
303.15 K	907.8	1092	0.373
308.15 K	902.6	1072	0.345
313.15 K	897.1	1052	0.324

CCOC=O [ethyl methanoate] + c1ccccc1
[1]
Details	mass density, 303.15 K [kg/m3]	mass density, 308.15 K [kg/m3]	mass density, 313.15 K [kg/m3]	speed of sound, 303.15 K [m/s]	speed of sound, 308.15 K [m/s]	speed of sound, 313.15 K [m/s]	viscosity, 303.15 K [mPa·s]	viscosity, 308.15 K [mPa·s]	viscosity, 313.15 K [mPa·s]
x1 = 0.1089	870.4	865.8	861.3	1252	1228	1208	0.529	0.499	0.468
x1 = 0.2169	873.5	868.9	864.3	1228	1208	1188	0.493	0.46	0.428
x1 = 0.3189	876.9	872.2	867.5	1208	1188	1168	0.462	0.431	0.401
x1 = 0.4239	880.8	876	871.2	1188	1168	1148	0.439	0.408	0.38
x1 = 0.5253	884.9	880.1	875.2	1172	1152	1132	0.422	0.392	0.364
x1 = 0.6233	889.1	884.2	879.2	1156	1136	1116	0.41	0.38	0.354
x1 = 0.7211	893.6	888.6	883.4	1140	1120	1100	0.399	0.37	0.348
x1 = 0.8148	898.1	893	887.7	1124	1104	1084	0.389	0.364	0.338
x1 = 0.9088	903	897.8	892.3	1108	1088	1068	0.379	0.355	0.329
x1 = 1	907.8	902.6	897.1	1092	1072	1052	0.373	0.345	0.324

CC(C)c1ccccc1 [isopropylbenzene]
[2]
Details	mass density [kg/m3]	speed of sound [m/s]	viscosity [mPa·s]
303.15 K	852.7	1280	0.69
308.15 K	849	1264	0.651
313.15 K	845.4	1248	0.611

CCOC=O [ethyl methanoate] + CCCCc1ccccc1
[1], x1 = 1
Details	mass density [kg/m3]	speed of sound [m/s]	viscosity [mPa·s]
303.15 K	907.8	1092	0.373
308.15 K	902.6	1072	0.345
313.15 K	897.1	1052	0.324

CCCCc1ccccc1 [butylbenzene] + CCOC=O
[1]
Details	mass density, 303.15 K [kg/m3]	mass density, 308.15 K [kg/m3]	mass density, 313.15 K [kg/m3]	speed of sound, 303.15 K [m/s]	speed of sound, 308.15 K [m/s]	speed of sound, 313.15 K [m/s]	viscosity, 303.15 K [mPa·s]	viscosity, 308.15 K [mPa·s]	viscosity, 313.15 K [mPa·s]
x2 = 0	851.3	848	844.6	1308	1292	1276	0.901	0.844	0.787
x2 = 0.1738	855.4	851.9	848.4	1284	1264	1244	0.782	0.713	0.65
x2 = 0.3241	860.3	856.6	852.9	1252	1232	1212	0.692	0.627	0.571
x2 = 0.4533	865.4	861.5	857.5	1220	1200	1180	0.625	0.569	0.518
x2 = 0.563	870.7	866.6	862.4	1196	1176	1156	0.571	0.521	0.476
x2 = 0.6587	876.3	872	867.6	1176	1156	1136	0.525	0.48	0.44
x2 = 0.744	882.2	877.6	873.1	1156	1136	1116	0.482	0.443	0.407
x2 = 0.8189	888.4	883.6	878.8	1140	1120	1100	0.451	0.412	0.381
x2 = 0.8855	894.5	889.6	884.6	1124	1104	1084	0.419	0.385	0.355
x2 = 0.9459	901.2	896	890.8	1108	1088	1068	0.398	0.366	0.336

CC(C)Cc1ccccc1 [(2-methylpropyl)benzene]
[2]
Details	mass density [kg/m3]	speed of sound [m/s]	viscosity [mPa·s]
303.15 K	844.4	1268	0.905
308.15 K	841.1	1252	0.848
313.15 K	837.6	1236	0.784
